Data from ChEMBL document CHEMBL5338818, “Discovery of the First Potent, Selective, and In Vivo Efficacious Polo-like Kinase 4 Proteolysis Targeting Chimera Degrader for the Treatment of TRIM37-Amplified Breast Cancer” (J Med Chem, 2023).
The source made the active and inactive calls. No cut-off for these calls is given here.

What was measured:
[1] = Metabolic stability in human liver microsomes assessed as compound remaining at 100 uM incubated for 60 mins by LC-MS/MS analysis; type: ADME, Microsome; details: read-out: Stability
[2] = Observed volume of distribution at steady state in ICR mouse at 2 mg/kg, iv measured upto 24 hrs by LC-M/MS analysis; type: ADME, organism-based; details: in vivo, read-out: Vdss
[3] = Metabolic stability in mouse liver microsomes assessed as compound remaining at 100 uM incubated for 60 mins by LC-MS/MS analysis; type: ADME, Microsome; details: read-out: Stability
[4] = target: T1, Protein cereblon/Serine/threonine-protein kinase PLK4 (Homo sapiens, UniProt O00444+Q96SW2); test: Protac activity at CRBN/PLK4 in human MCF7 cells at 1 uM in presence of BAF by Western blot analysis; type: cell-based
Target sequence in this assay (O00444 whole entry, looked up): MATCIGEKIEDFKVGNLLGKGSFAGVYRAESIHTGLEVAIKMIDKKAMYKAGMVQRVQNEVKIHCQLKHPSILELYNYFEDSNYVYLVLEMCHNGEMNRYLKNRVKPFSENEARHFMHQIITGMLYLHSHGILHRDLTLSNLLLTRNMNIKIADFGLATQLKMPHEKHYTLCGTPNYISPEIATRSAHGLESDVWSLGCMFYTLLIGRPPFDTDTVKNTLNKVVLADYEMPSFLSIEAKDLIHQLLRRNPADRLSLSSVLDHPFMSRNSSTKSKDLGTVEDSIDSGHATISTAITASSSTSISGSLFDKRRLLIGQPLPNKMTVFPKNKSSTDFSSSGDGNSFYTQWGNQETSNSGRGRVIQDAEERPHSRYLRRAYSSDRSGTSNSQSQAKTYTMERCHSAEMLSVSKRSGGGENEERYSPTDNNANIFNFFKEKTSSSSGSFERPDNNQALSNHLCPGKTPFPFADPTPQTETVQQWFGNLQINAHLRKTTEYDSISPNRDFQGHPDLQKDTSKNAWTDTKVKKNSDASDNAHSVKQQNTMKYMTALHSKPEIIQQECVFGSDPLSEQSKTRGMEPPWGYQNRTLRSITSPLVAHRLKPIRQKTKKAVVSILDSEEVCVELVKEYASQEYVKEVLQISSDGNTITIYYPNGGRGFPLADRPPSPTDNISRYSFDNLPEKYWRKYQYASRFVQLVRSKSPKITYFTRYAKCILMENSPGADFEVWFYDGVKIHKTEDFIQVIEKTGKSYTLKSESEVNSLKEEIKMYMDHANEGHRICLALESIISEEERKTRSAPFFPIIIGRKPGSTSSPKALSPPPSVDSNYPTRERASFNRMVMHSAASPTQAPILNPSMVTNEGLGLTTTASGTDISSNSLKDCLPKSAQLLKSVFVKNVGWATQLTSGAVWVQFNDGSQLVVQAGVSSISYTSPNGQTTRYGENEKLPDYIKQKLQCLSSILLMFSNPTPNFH
Target sequence in this assay (Q96SW2 whole entry, looked up): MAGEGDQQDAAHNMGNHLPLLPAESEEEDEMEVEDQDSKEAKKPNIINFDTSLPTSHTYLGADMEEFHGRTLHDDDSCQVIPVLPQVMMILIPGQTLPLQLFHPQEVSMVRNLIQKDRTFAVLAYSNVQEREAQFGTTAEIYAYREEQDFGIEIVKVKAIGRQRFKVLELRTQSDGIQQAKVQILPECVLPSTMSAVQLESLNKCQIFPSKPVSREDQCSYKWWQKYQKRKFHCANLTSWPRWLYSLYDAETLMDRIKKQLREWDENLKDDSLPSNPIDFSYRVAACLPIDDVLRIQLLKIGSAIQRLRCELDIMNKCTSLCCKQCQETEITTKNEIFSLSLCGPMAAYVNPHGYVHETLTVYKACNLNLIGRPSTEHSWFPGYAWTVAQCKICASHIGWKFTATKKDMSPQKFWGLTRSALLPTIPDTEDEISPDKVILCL

[5] = target: CYP2C19 (Homo sapiens, UniProt P33261); test: Inhibition of CYP2C19 in human liver microsomes at 10 uM using (+)-3-benzylnirvanol as substrate preincubated for 10 mins followed by NADPH regenerating system addition and measured after 15 mins by LC-MS/MS analysis relative to control; type: ADME, Microsome; details: probe (+)-3-benzylnirvanol (named as substrate in the text), time 25 min
Chain of CYP2C19 (P33261 whole entry): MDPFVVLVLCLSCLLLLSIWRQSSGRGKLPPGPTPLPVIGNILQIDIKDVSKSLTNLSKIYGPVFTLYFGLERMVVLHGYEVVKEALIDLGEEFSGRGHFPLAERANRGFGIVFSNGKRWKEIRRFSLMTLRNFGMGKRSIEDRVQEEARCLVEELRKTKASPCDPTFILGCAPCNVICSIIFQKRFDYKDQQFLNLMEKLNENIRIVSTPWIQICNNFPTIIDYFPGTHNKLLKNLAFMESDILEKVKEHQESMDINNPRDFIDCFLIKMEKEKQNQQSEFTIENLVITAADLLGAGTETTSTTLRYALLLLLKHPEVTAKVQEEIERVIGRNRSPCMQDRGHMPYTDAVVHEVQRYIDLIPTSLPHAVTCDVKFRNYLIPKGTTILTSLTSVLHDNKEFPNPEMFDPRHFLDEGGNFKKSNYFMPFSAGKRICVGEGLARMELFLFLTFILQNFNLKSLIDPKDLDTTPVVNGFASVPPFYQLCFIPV

[6] = Stability in human plasma assessed as compound remaining at 100 uM after 60 mins by LC-MS/MS analysis (reference value: 100%); type: ADME, cell-free; details: read-out: Stability
[7] = Metabolic stability in human liver microsomes assessed as half life at 100 uM incubated for 60 mins in presence of NADPH by LC-MS/MS analysis; type: ADME, Microsome
[8] = Toxicity in nu/nu mouse xenografted with human MCF7 cells assessed as effect on kidney at 20 mg/kg, ip administered once every other day for 21 days by HE staining based analysis; type: organism-based; details: in vivo, 504 h, time 21 day
[9] = Metabolic stability in rat liver microsomes assessed as compound remaining at 100 uM incubated for 60 mins by LC-MS/MS analysis; type: ADME, Microsome; details: read-out: Stability
[10] = test system: MCF7; test: Induction of apoptosis in human MCF7 cells at 0.3 to 3 uM incubated for 36 hrs by Annexin V-FITC//propidium iodide staining based flow cytometry analysis; type: functional, cell-based; details: dose 0.3-3 µM
[11] = test system: MCF7; test: Antitumor activity against human MCF7 cells xenografted in nu/nu mouse assessed as tumor growth inhibition at 20 mg/kg, ip administered once every other day for 21 days; type: functional; details: MCF7, 504 h, time 21 day, read-out: TGI
[12] = target: T1, Protein cereblon/Serine/threonine-protein kinase PLK4; test: Protac activity at CRBN/PLK4 in human MCF7 cells at 10 uM incubated for 48 hrs by Western blot analysis; type: cell-based
Target sequence in this assay (O00444 whole entry, looked up): as the sequence (O00444 whole entry, looked up) above
Target sequence in this assay (Q96SW2 whole entry, looked up): as the sequence (Q96SW2 whole entry, looked up) above

[13] = Toxicity in nu/nu mouse xenografted with human MCF7 cells assessed as effect on liver at 20 mg/kg, ip administered once every other day for 21 days by HE staining based analysis; type: organism-based; details: in vivo, 504 h, time 21 day
[14] = Toxicity in nu/nu mouse xenografted with human MCF7 cells assessed as effect on spleen at 20 mg/kg, ip administered once every other day for 21 days by HE staining based analysis; type: organism-based; details: in vivo, 504 h, time 21 day
[15] = target: T1, Protein cereblon/Serine/threonine-protein kinase PLK4; test: Protac activity at CRBN/PLK4 in human MCF7 cells at 1 uM incubated for 48 hrs by Western blot analysis; type: cell-based
Target sequence in this assay (O00444 whole entry, looked up): as the sequence (O00444 whole entry, looked up) above
Target sequence in this assay (Q96SW2 whole entry, looked up): as the sequence (Q96SW2 whole entry, looked up) above

[16] = Tmax in ICR mouse at 20 mg/kg, ip measured upto 24 hrs by LC-M/MS analysis; type: ADME, organism-based; details: in vivo
[17] = test system: MCF7; test: Induction of cell senescence in human MCF7 cells assessed by increase SA-beta-Gal positive cells at 2 uM measured after 48 hrs; type: functional, cell-based
[18] = Half life in ICR mouse at 2 mg/kg, iv measured upto 24 hrs by LC-M/MS analysis; type: ADME, organism-based; details: in vivo
[19] = test system: CYP2D6; test: Inhibition of CYP2D6 in human liver microsomes at 10 uM using quinidine as substrate preincubated for 10 mins followed by NADPH regenerating system addition and measured after 15 mins by LC-MS/MS analysis relative to control; type: ADME, Microsome; details: time 25 min
[20] = Observed AUC infinity in ICR mouse at 2 mg/kg, iv measured upto 24 hrs by LC-M/MS analysis; type: ADME, organism-based; design: time < 24 hrs, dose 2 mg/kg, route iv; details: in vivo
[21] = target: CYP3A4 (Homo sapiens, UniProt P08684); test: Inhibition of CYP3A4 in human liver microsomes at 10 uM using ketoconazole as substrate preincubated for 10 mins followed by NADPH regenerating system addition and measured after 15 mins by LC-MS/MS analysis relative to control; type: ADME, Microsome; details: time 25 min
Chain of CYP3A4 (P08684 whole entry): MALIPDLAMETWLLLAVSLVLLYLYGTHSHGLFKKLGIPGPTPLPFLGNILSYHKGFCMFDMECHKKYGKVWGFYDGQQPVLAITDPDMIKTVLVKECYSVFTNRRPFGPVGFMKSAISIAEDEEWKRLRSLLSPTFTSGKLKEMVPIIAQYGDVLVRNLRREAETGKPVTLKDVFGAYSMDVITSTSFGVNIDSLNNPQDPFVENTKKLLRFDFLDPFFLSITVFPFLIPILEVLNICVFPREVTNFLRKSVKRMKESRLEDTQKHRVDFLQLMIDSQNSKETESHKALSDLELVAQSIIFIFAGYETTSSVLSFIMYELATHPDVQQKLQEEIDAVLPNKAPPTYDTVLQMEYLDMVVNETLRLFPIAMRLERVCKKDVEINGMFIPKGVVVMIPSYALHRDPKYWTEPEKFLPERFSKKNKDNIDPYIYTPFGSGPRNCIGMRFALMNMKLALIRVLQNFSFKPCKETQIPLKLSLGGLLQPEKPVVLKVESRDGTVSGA

[22] = AUClast in ICR mouse at 20 mg/kg, ip measured upto 24 hrs by LC-M/MS analysis; type: ADME, organism-based; design: dose 20 mg/kg, time < 24 hrs, route ip; details: in vivo
[23] = test system: MCF7; test: Inhibition of colony formation in human MCF7 cells incubated for 14 days by crystal violet staining based assay; type: functional, cell-based; details: dose 0.05-1 µM, time 14.0 day
[24] = test system: MCF7; test: Induction of cell cycle arrest at G2 phase in human MCF7 cells at 0.3 to 3 uM incubated for 36 hrs by Annexin V-FITC//propidium iodide staining based flow cytometry analysis; type: functional
[25] = target: CYP2C9 (Homo sapiens, UniProt P11712); test: Inhibition of CYP2C9 in human liver microsomes at 10 uM using sulfaphenazole as substrate preincubated for 10 mins followed by NADPH regenerating system addition and measured after 15 mins by LC-MS/MS analysis relative to control; type: ADME, Microsome; details: time 25 min
Chain of CYP2C9 (P11712 whole entry): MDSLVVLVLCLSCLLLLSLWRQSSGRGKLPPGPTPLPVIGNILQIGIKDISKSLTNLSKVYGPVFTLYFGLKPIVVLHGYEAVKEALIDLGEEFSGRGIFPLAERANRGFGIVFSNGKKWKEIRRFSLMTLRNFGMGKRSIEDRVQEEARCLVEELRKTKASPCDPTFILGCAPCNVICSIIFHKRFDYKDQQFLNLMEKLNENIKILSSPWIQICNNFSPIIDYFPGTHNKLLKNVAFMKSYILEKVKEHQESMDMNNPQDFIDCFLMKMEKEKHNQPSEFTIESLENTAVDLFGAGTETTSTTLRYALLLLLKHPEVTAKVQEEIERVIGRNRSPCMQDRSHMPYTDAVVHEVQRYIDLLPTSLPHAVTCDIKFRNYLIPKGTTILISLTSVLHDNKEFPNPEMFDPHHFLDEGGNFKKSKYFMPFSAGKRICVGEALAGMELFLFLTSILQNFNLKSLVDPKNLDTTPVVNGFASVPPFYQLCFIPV

[26] = target: T1, Protein cereblon/Serine/threonine-protein kinase PLK4; test: Protac activity at CRBN/PLK4 in human MCF7 cells at 0.1 uM incubated for 48 hrs by Western blot analysis; type: cell-based
Target sequence in this assay (O00444 whole entry, looked up): as the sequence (O00444 whole entry, looked up) above
Target sequence in this assay (Q96SW2 whole entry, looked up): as the sequence (Q96SW2 whole entry, looked up) above

[27] = Toxicity in nu/nu mouse xenografted with human MCF7 cells assessed as effect on lungs at 20 mg/kg, ip administered once every other day for 21 days by HE staining based analysis; type: organism-based; details: in vivo, 504 h, time 21 day
[28] = Metabolic stability in rat liver microsomes assessed as compound remaining at 100 uM incubated for 60 mins in presence of NADPH by LC-MS/MS analysis; type: ADME, Microsome; details: read-out: Stability
[29] = Apparent permeability across basolateral to apical side in human Caco-2 cells at 2 uM incubated for 2 hrs by LC-MS/MS analysis; type: ADME, cell-based
[30] = Cmax in ICR mouse at 20 mg/kg, ip measured upto 24 hrs by LC-M/MS analysis; type: ADME, organism-based; design: dose 20 mg/kg, time < 24 hrs, route ip; details: in vivo
[31] = Metabolic stability in rat liver microsomes assessed as intrinsic clearance at 100 uM incubated for 60 mins in presence of NADPH by LC-MS/MS analysis; type: ADME, Microsome; details: read-out: CLH
[32] = Metabolic stability in human liver microsomes assessed as compound remaining at 100 uM incubated for 60 mins in presence of NADPH by LC-MS/MS analysis; type: ADME, Microsome; details: read-out: Stability
[33] = target: T1, Protein cereblon/Serine/threonine-protein kinase PLK4; test: Protac activity at CRBN/PLK4 in human MCF7 cells by Western blot analysis; type: cell-based
Target sequence in this assay (O00444 whole entry): as the sequence (O00444 whole entry, looked up) above
Target sequence in this assay (Q96SW2 whole entry): as the sequence (Q96SW2 whole entry, looked up) above

[34] = Bioavailability in ICR mouse at […] measured upto 24 hrs by LC-M/MS analysis; type: ADME, organism-based; details: in vivo

## Cc1cc(Nc2nc(NCc3ccc(F)cc3F)nc3c2cnn3C2CCN(C(=O)C3CCN(c4ccc5c(c4)C(=O)N(C4CCC(=O)NC4=O)C5=O)CC3)CC2)n[nH]1 (centres undefined)
[1]
  remaining at 1 h, 100 µM: 97.3%
[2]
  Vd: 16.3 L/kg
[3]
  remaining at 1 h, 100 µM: 80.7%
[4]
  Activity: inactive
[5]
  inhibition at 0.25 h, 10 µM: 23.4%
[6]
  remaining at 1 h, 100 µM: 83.6%
[7]
  half-life at 100 µM: 1.06 h
[8]
  Activity: Non-Toxic
[9]
  remaining at 1 h, 100 µM: 93.1%
[10]
  Activity: Dose-Dependent Effect
[11]
  inhibition in vivo at 20 mg/kg: 73.7%
[12]
  Activity: 83.5%
[13]
  Activity: Non-Toxic
[14]
  Activity: Non-Toxic
[15]
  Activity: 73.4%
[16]
  Tmax: 1.42 h
[17]
  Activity: Active
[18]
  half-life: 5.34 h
[19]
  inhibition at 0.25 h, 10 µM: 5.6%
[20]
  AUC(0-inf): 956 ng·h/mL
[21]
  inhibition at 0.25 h, 10 µM: 20.4%
[22]
  AUC(0-t) at 24 h: 14000 ng·h/mL
[23]
  inhibition: Dose-Dependent Effect
[24]
  Activity: Dose-Dependent Effect
[25]
  inhibition at 0.25 h, 10 µM: 32.5%
[26]
  Activity: 68.3%
[27]
  Activity: Non-Toxic
[28]
  remaining at 1 h, 100 µM: 51.5%
[29]
  Papp B→A at 2 h, 2 µM: 0.97 ×10⁻⁶ cm/s
[30]
  Cmax: 4570 ng/mL
[31]
  microsomal CLint at 100 µM: 20.9 µL/min/mg
[32]
  remaining at 1 h, 100 µM: 51.7%
[33]
  DC50: 19.5 nM
[34]
  bioavailability: 149%
